Laboratory results taken from patent publication US12559497B2, “Imidazopiperazine inhibitors of transcription activating proteins” (Board of Regents, The University of Texas System, priority 2020, dated 2026).

Legend:
[1] = In vivo pharmacokinetics after a single dose, rat; settings: male, plasma, Sprague-Dawley rat
Description: (§1) IV (intravenous) doses were formulated in 20% DMSO+60% PEG400+20% water. PO (per os) doses were formulated in 0.5% methylcellulose in water.
Rat: Male rats (SD strain, purchased from Shanghai JH Laboratory Animal Co. LTD) weighing 200-300 g were used for studies. Animals were fasted overnight and fed 4 h postdose. Water was available ad libitum for all animals. Test article was dosed via dorsal foot vein (IV doses) or oral gavage (PO doses). Blood samples were collected via tail vein from all animals at predose and at 0.083, 0.25, 0.5, 1, 2, 4, 8, and 24 h postdose into tubes containing the anticoagulant K2EDTA. Plasma was separated from the blood by centrifugation at 4° C. and stored at −70° C. until analysis. Test article concentrations in plasma were quantified using a liquid chromatography with tandem mass spectrometry (LC-MS/MS) method.

DOHH2 cells = experiment: DOHH2 Proliferation Assay; type: cell-based; settings: Homo sapiens, DOHH-2, 168 h; CellTiter-Glo viability on day 7
Description: DOHH2 Proliferation Assay: On day 1, 1000 DOHH2 cells were seeded to a 384-well TC plate (PerkinElmer #6007680) in 40 μL RPMI 1640 media, followed by the addition of CBP inhibitors except for column 13 where 3.3 μM staurosporine was added as negative control. DMSO was 0.1% in all the wells. The cells were lysed in and counted viability by 40 μL CellTiter-Glo (Promega #G9243) on day 7. The luminescent signal was quantified by Envision Multilabel plate reader and the standard dose response curves were fitted by Genedata Screener software using the variable-slope model: Signal=Signalnegative control+(SignalDMSO control−Signalnegative control)/(1+(IC50/Dose)∧Hill slope).
(§2) Only Signal and Dose in the equation were treated as known values.

[2] = Metabolic stability in human liver microsomes; type: in vitro ADME; settings: pH 7.4, 0.5 mg/mL microsomes, NADPH, 45 minutes, 37° C., read-out: Half-life in liver microsomes (t1/2)
Description: (§3) Microsomal stability. Microsomal stability assays were conducted on a Beckmann Biomek FXp laboratory automation system. The liver microsomal incubation mixture consisted of liver microsomes (0.5 mg microsomal protein/mL), the Compound (1 μM), MgCl2 (3 mM), and EDTA (1 mM) in potassium phosphate buffer (100 mM, pH 7.4). Midazolam and Ketanserin were used as the assay control substrates. The reaction was initiated with the addition of an NADPH regeneration solution (1.3 mM NADPH) and maintained at 37° C. with shaking. At five time points ranging from 0 to 45 min, aliquots (50 μL) were removed and quenched with acetonitrile (100 μL) containing an internal standard (imipramine). After vortex and centrifugation, samples were analyzed by LC-MS/MS. Calculation of the in vitro half-lives and clearance followed literature guidelines.

[3] = In vivo pharmacokinetics after a single dose, dog; settings: male, plasma, Beagle dog
Description: as §1
(§4) Dog: Male Beagle dogs (purchased from Beijing Marshall Biotechnology Co., Ltd) weighing 7-10 kg were used for studies. Animals were fasted overnight and fed 4 h postdose. Test article was administered to dogs via the cephalic vein (IV doses) or oral gavage (PO doses). Blood samples were collected via the saphenous vein or cephalic vein from all animals at predose and 0.083, 0.25, 0.5, 1, 2, 4, 8, and 24 h postdose into tubes containing the anticoagulant K2EDTA. Plasma was separated from the blood by centrifugation at 4° C. and stored at −70° C. until analysis. Test article concentrations in plasma were quantified using a liquid chromatography with tandem mass spectrometry (LC-MS/MS) method.

[4] = molecular target: T1, BRD4 (49-170) bromodomain (Homo sapiens, UniProt O60885); experiment: BRD4 AlphaScreen assay; settings: binding to biotin-H4 (1-21) Ac-K5/8/12/16
T1 construct: The GST tagged bromodomains of CBP (1081-1197) and BRD4 (49-170) were obtained from BPS Bioscience; purchased BPS Bioscience
Description: (§5) Specific binding of the CBP or BRD4 bromodomain to the acetylated peptide derived from the H4 histone substrate (tetra acetylated H4 (1-21) Ac—K5/8/12/16) was measured in absence or presence of inhibitors. The GST tagged bromodomains of CBP (1081-1197) and BRD4 (49-170) were obtained from BPS Bioscience and binding to the biotinylated H4 (1-21) Ac—K5/8/12/16 (AnaSpec. 64989) was assessed via AlphaScreen technology (Perkin Elmer).
(§6) BRD4 AlphaScreen assay: The binding of 2.5 nM of BRD4 (49-170) to 10 nM biotin-H4 (1-21) Ac—K5/8/12/16 (AnaSpec. 64989) was assessed following the same procedure described for the CBP assay. The standard dose response curves were fitted by Genedata Screener software using the variable-slope model: Signal=Signalnegative control+(SignalDMSO control−Signalnegative control)/(1+(IC50/Dose)∧Hill slope).
as §2

[5] = In vivo pharmacokinetics after a single dose, mouse; design: species or system Female CD-1 Mice; settings: for mouse in vivo clearances compared to the structural analogs previously disclosed / mouse in vivo half-lives compared to the structural analogs previously disclosed: in words; for clearance / half-life / Vd: plasma, Female CD-1 mice, single dose 0.2 or 0.3 mg/kg IV; for Vd: read-out: Vss
Description: as §1
Mouse: Female mice (CD1 strain, purchased from Shanghai JH Laboratory Animal Co. LTD) weighing 20-30 g were used for studies. Food and water were available to all animals ad libitum. The test article was dosed via tail vein (IV doses) or oral gavage (PO doses), respectively. Blood samples were collected from all animals at predose and at 0.083, 0.25, 0.5, 1, 2, 4, 8, and 24 h postdose into tubes containing the anticoagulant K2EDTA (3 animals per time point with 3 time points collected per animal). Plasma was separated from the blood by centrifugation at 4° C. and stored at −70° C. until analysis. Test article concentrations in plasma were quantified using a liquid chromatography with tandem mass spectrometry (LC-MS/MS) method.

[6] = Metabolic stability in monkey liver microsomes; type: in vitro ADME; settings: pH 7.4, read-out: Liver microsomal clearance (t1/2)
Description: as §3

[7] = molecular target: T2, GST-CBP (1081-1197) bromodomain (Homo sapiens, UniProt Q92793); experiment: CBP AlphaScreen assay; settings: binding to biotin-H4 (1-21) Ac-K5/8/12/16
T2 construct: The GST tagged bromodomains of CBP (1081-1197) and BRD4 (49-170) were obtained from BPS Bioscience; purchased BPS Bioscience
Description: as §5
CBP AlphaScreen assay: 5 nM GST-CBP (1081-1197) and 20 nM biotin-H4 (1-21) Ac—K5/8/12/16 (AnaSpec. 64989) were incubated with varying concentrations of CBP inhibitors in 15 μL of buffer containing 50 mM HEPES 7.5, […], 1 mM TCEP, and 0.003% Tween-20. After 30 minutes incubation at room temperature, 15 μL of detection buffer (BPS Bio. 33006) containing 7 μg/mL of Glutathione AlphaLisa acceptor beads (Perkin Elmer AL109) and 14 μg/mL of Streptavidin donor beads (Perkin Elmer 676002) was then added to the previous mixture. The reaction was incubated for an additional 2 hours at room temperature, and the AlphaScreen signal was quantified using the Envision Multilabel plate reader. As negative control, GST-CBP (1081-1197) was incubated with the non-acetylated biotin-H4 (1-21) peptide (AnaSpec. 62555) and in presence of 0.25% of final DMSO concentration.
as §6, §2

[8] = Metabolic stability in rat liver microsomes; type: in vitro ADME; settings: Sprague Dawley, pH 7.4, 0.5 mg/mL microsomes, NADPH, 45 minutes, 37° C., read-out: Half-life in liver microsomes (t1/2)
Description: as §3

[9] = Metabolic stability in dog liver microsomes; type: in vitro ADME; settings: pH 7.4, read-out: Liver microsomal clearance (t1/2)
Description: as §3

[10] = In vivo pharmacokinetics after a single dose, monkey; settings: male, plasma, Cynomolgus monkey
Description: as §1
as §4, with “Monkey:” for “Dog:”, “Cynomolgus monkeys” for “Beagle dogs”, “Hainan Jingang Biotech.” for “Beijing Marshall Biotechnology”, “3-5” for “7-10”, “monkeys” for “dogs”, “nasal” for “oral”

[11] = Metabolic stability in mouse liver microsomes; type: in vitro ADME, CD-1 mouse; settings: CD-1, liver microsomes, pH 7.4, 0.5 mg/mL microsomes, NADPH, 45 minutes, 37° C., read-out: Half-life in liver microsomes (t1/2)
Description: as §3

[12] = 1 mg/kg IV single dose, read-out: Vss

T2 sequence (Q92793 1081-1197): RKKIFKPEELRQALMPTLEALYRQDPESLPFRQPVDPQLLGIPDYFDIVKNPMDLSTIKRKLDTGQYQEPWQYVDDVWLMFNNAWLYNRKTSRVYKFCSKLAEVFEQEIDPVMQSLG

SMILES: CC(=O)N1CCn2c(C3CCOCC3)nc(-c3cccc4cc(-c5cnc(C)s5)ncc34)c2C1 [Compound 1, 1-(1-(3-(2-methylthiazol-5-yl)isoquinolin-8-yl)-3-(tetrahydro-2H-pyran-4-yl)-5,6-dihydroimidazo[1,5-α]pyrazin-7 (8H)-yl)ethan-1-one]
- clearance ([1]; 1 mg/kg IV single dose): 11.2 mL/min/kg
- half-life ([1]; 1 mg/kg IV single dose): 3.82 h
- Vd [1, 12]: 2.31 L/kg
- AUC(0-t) ([1]; 30 mg/kg PO single dose): 124 µM·h
- Cmax ([1]; 30 mg/kg PO single dose): 23000 nM
- bioavailability ([1]; 30 mg/kg PO single dose): 129%
- IC50 (DOHH2 cells): 261 nM
- half-life at 1 μM [2]: 5.17 h
- clearance ([3]; 1 mg/kg IV single dose): 4.3 mL/min/kg
- half-life ([3]; 1 mg/kg IV single dose): 9.74 h
- Vd [3, 12]: 3.38 L/kg
- AUC(0-t) ([3]; 3 mg/kg PO single dose): 26.2 µM·h
- Cmax ([3]; 3 mg/kg PO single dose): 2560 nM
- bioavailability ([3]; 3 mg/kg PO single dose): 119%
- IC50 [4]: 13200 nM
- mouse in vivo clearances compared to the structural analogs previously disclosed [5]: dramatic decrease
- mouse in vivo half-lives compared to the structural analogs previously disclosed [5]: increase
- clearance [5]: 6.2 mL/min/kg
- half-life [5]: 2.99 h
- Vd [5]: 1.45 L/kg
- half-life at 1 μM [6]: 1.62 h
- IC50 [7]: 7 nM
- half-life at 1 μM [8]: 20.4 h
- half-life at 1 μM [9]: 11.9 h
- clearance ([10]; 1 mg/kg IV single dose): 6.97 mL/min/kg
- half-life ([10]; 1 mg/kg IV single dose): 4.74 h
- Vd [10, 12]: 2.28 L/kg
- AUC(0-t) ([10]; 3 mg/kg PO single dose): 11.3 µM·h
- Cmax ([10]; 3 mg/kg PO single dose): 1970 nM
- bioavailability ([10]; 3 mg/kg PO single dose): 70.5%
- half-life at 1 μM [11]: 6.55 h

SMILES: CNC(=O)c1ccc(-c2cc3cccc(-c4nc(C5CC5)n5c4CN(C(C)=O)CC5)c3cn2)cn1 [Compound 2, 5-(8-(7-Acetyl-3-cyclopropyl-5,6,7,8-tetrahydroimidazo[1,5-α]pyrazin-1-yl)isoquinolin-3-yl)-N-methylpicolinamide]
- IC50 (DOHH2 cells): 376 nM
- IC50 [4]: 25000 nM
- IC50 [7]: 15 nM

SMILES: CNC(=O)c1ccc(-c2cc3cccc(-c4nc(C5CCOCC5)n5c4CN(C(C)=O)CC5)c3cn2)cn1 [Compound 3, 5-(8-(7-Acetyl-3-(tetrahydro-2H-pyran-4-yl)-5,6,7,8-tetrahydroimidazo[1,5-α]pyrazin-1-yl)isoquinolin-3-yl)-N-methylpicolinamide]
- IC50 (DOHH2 cells): 232 nM
- half-life at 1 μM [2]: 4.82 h
- IC50 [4]: 15000 nM
- mouse in vivo clearances compared to the structural analogs previously disclosed [5]: dramatic decrease
- mouse in vivo half-lives compared to the structural analogs previously disclosed [5]: increase
- clearance [5]: 11.9 mL/min/kg
- half-life [5]: 2.55 h
- Vd [5]: 1.84 L/kg
- IC50 [7]: 16 nM
- half-life at 1 μM [8]: 5.03 h
- half-life at 1 μM [11]: 8.03 h

SMILES: CNC(=O)c1ccc(-c2cc3cccc(-c4nc(C56CCC(CC5)OC6)n5c4CN(C(C)=O)CC5)c3cn2)cn1 [Compound 4, 5-(8-(7-acetyl-3-(2-oxabicyclo[2.2.2]octan-4-yl)-5,6,7,8-tetrahydroimidazo[1,5-α]pyrazin-1-yl)isoquinolin-3-yl)-N-methylpicolinamide]
- IC50 (DOHH2 cells): 676 nM
- IC50 [4]: 17000 nM
- IC50 [7]: 22 nM

SMILES: CNC(=O)c1ccc(-c2cc3ccc(F)c(-c4nc(C5CCOCC5)n5c4CN(C(C)=O)CC5)c3cn2)cn1 [Compound 5, 5-(8-(7-Acetyl-3-(tetrahydro-2H-pyran-4-yl)-5,6,7,8-tetrahydroimidazo[1,5-α]pyrazin-1-yl)-7-fluoroisoquinolin-3-yl)-N-methylpicolinamide]
- IC50 (DOHH2 cells): 216 nM
- IC50 [4]: 20400 nM
- IC50 [7]: 34 nM

SMILES: CC(=O)N1CCn2c(C3CCOCC3)nc(-c3c(F)ccc4cc(-c5cnc(C)s5)ncc34)c2C1 [Compound 6, 1-(1-(7-fluoro-3-(2-methylthiazol-5-yl)isoquinolin-8-yl)-3-(tetrahydro-2H-pyran-4-yl)-5,6-dihydroimidazo[1,5-α]pyrazin-7 (8H)-yl)ethan-1-one]
- IC50 (DOHH2 cells): 541 nM
- IC50 [4]: 22200 nM
- IC50 [7]: 14 nM

SMILES: CNC(=O)c1ccc(-c2cc3cccc(-c4nc(C5CCOCC5)n5c4CN(C(=O)NC)CC5)c3cn2)cn1 [Compound 8, reference compound]
- half-life at 1 μM [2]: 7.7 h
- clearance [5]: 54.8 mL/min/kg
- half-life [5]: 0.588 h
- Vd [5]: 2 L/kg
- half-life at 1 μM [8]: 9 h
- half-life at 1 μM [11]: 10.2 h
